Measured values taken from PubChem BioAssay AID256 (DTP/NCI, 2004).
Values joined by “and” are separate entries in the source; they are usually repeats but may differ in a detail not shown here. Equal entries are not always repeated. Inconclusive results and toxic doses are left out. Rule for the calls: active = survival T/C of 150% or more; inactive = T/C below 125% in these data.

Tested on: CD2F1 mice, L1210 leukemia ip, survival T/C
Assay: NCI In Vivo Anticancer Drug Screen. Data for tumor model L1210 Leukemia (intraperitoneal) in CD2F1 (CDF1) mice
Details: higher = longer survival
Procedure, shortened: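 Tumor-bearing mice (transplanted tumor) were split into treated and vehicle control groups, and the measured endpoint of each treated group was divided by that of its vehicle controls.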

[1] = endpoint: mean survival time, dose: 25.0 mg/kg/injection, schedule: Q01DX009 (ip), vehicle: saline with Tween-80
[2] = endpoint: mean survival time, dose: 50.0 mg/kg/injection, schedule: Q01DX009 (ip), vehicle: saline with Tween-80
[3] = endpoint: mean survival time, dose: 50.0 mg/kg/injection, schedule: Q04DX002 (ip), vehicle: saline with Tween-80
[4] = endpoint: mean survival time, dose: 100.0 mg/kg/injection, schedule: Q01DX009 (ip), vehicle: saline with Tween-80
[5] = endpoint: mean survival time, dose: 100.0 mg/kg/injection, schedule: Q04DX002 (ip), vehicle: saline with Tween-80
[6] = endpoint: mean survival time, dose: 100.0 mg/kg/injection, schedule: Q04DX003 (ip), vehicle: saline
[7] = endpoint: mean survival time, dose: 200.0 mg/kg/injection, schedule: Q04DX003 (ip), vehicle: saline
[8] = endpoint: mean survival time, dose: 400.0 mg/kg/injection, schedule: Q04DX003 (ip), vehicle: saline
[9] = endpoint: mean survival time, dose: 100.0 mg/kg/injection, schedule: Q04DX003 (ip), vehicle: saline with Tween-80
[10] = endpoint: mean survival time, dose: 200.0 mg/kg/injection, schedule: Q01DX009 (ip), vehicle: saline with Tween-80
[11] = endpoint: mean survival time, dose: 200.0 mg/kg/injection, schedule: Q04DX003 (ip), vehicle: saline with Tween-80
[12] = endpoint: mean survival time, dose: 400.0 mg/kg/injection, schedule: Q01DX009 (ip), vehicle: saline with Tween-80
[13] = endpoint: mean survival time, dose: 400.0 mg/kg/injection, schedule: Q04DX003 (ip), vehicle: saline with Tween-80
[14] = endpoint: mean survival time, dose: 200.0 mg/kg/injection, schedule: Q04DX002 (ip), vehicle: saline with Tween-80
[15] = endpoint: mean survival time, dose: 100.0 mg/kg/injection, schedule: Q01DX001 (ip), vehicle: saline
[16] = endpoint: mean survival time, dose: 200.0 mg/kg/injection, schedule: Q01DX001 (ip), vehicle: saline
[17] = endpoint: mean survival time, dose: 400.0 mg/kg/injection, schedule: Q01DX001 (ip), vehicle: saline

Measured: T/C

NCC1CCC(C(=O)O)CC1 (stereo not drawn)
inactive: endpoint: median survival time, dose: 12.5 mg/kg/injection, schedule: Q01DX009 (ip), vehicle: saline with Tween-80 101 % of control | endpoint: median survival time, dose: 25.0 mg/kg/injection, schedule: Q01DX009 (ip), vehicle: saline with Tween-80 101 % of control | endpoint: median survival time, dose: 50.0 mg/kg/injection, schedule: Q01DX005 (ip), vehicle: saline with Tween-80 110 % of control | endpoint: median survival time, dose: 50.0 mg/kg/injection, schedule: Q01DX009 (ip), vehicle: saline with Tween-80 100 % of control | endpoint: median survival time, dose: 100.0 mg/kg/injection, schedule: Q01DX005 (ip), vehicle: saline with Tween-80 104 % of control | endpoint: median survival time, dose: 100.0 mg/kg/injection, schedule: Q01DX009 (ip), vehicle: saline with Tween-80 101 % of control | endpoint: median survival time, dose: 200.0 mg/kg/injection, schedule: Q01DX005 (ip), vehicle: saline with Tween-80 97 % of control | endpoint: median survival time, dose: 200.0 mg/kg/injection, schedule: Q01DX009 (ip), vehicle: saline with Tween-80 100 % of control | endpoint: median survival time, dose: 400.0 mg/kg/injection, schedule: Q01DX005 (ip), vehicle: saline with Tween-80 105 % of control | endpoint: median survival time, dose: 400.0 mg/kg/injection, schedule: Q01DX009 (ip), vehicle: saline with Tween-80 100 % of control | endpoint: median survival time, dose: 800.0 mg/kg/injection, schedule: Q01DX005 (ip), vehicle: saline with Tween-80 97 % of control

c1ccc(Cc2ccccc2-c2ccccc2)cc1
inactive: endpoint: mean survival time, dose: 100.0 mg/kg/injection, schedule: Q04DX003 (ip), vehicle: Klucel (hydroxypropylcellulose) (HPC) 89 % of control | endpoint: mean survival time, dose: 200.0 mg/kg/injection, schedule: Q04DX003 (ip), vehicle: Klucel (hydroxypropylcellulose) (HPC) 89 % of control | endpoint: mean survival time, dose: 400.0 mg/kg/injection, schedule: Q04DX003 (ip), vehicle: Klucel (hydroxypropylcellulose) (HPC) 93 % of control

COc1ccccc1NC(=O)Oc1ccc(C2CCCCC2)cc1
inactive: [1] 108 % of control | endpoint: mean survival time, dose: 25.0 mg/kg/injection, schedule: Q04DX002 (ip), vehicle: saline with Tween-80 100 % of control | [2] 97 % of control | [3] 100 % of control | [4] 104 % of control | [5] 92 % of control and 98 % of control

O=C1CCCN1.O=C1CCCN1.[Br][Co][Br]
inactive: endpoint: mean survival time, dose: 37.5 mg/kg/injection, schedule: Q01DX009 (ip), vehicle: saline 102 % of control | endpoint: mean survival time, dose: 75.0 mg/kg/injection, schedule: Q01DX009 (ip), vehicle: saline 107 % of control

COC(=O)CC(=O)C1(C)CC1
inactive: [6] 90 % of control | [7] 93 % of control | [8] 96 % of control

CN(C)C(=O)OC1CCCC1[N+](C)(C)CCCCCCCC[N+](C)(C)C1CCCC1OC(=O)N(C)C (stereo not drawn)
inactive: endpoint: mean survival time, dose: 0.19 mg/kg/injection, schedule: Q01DX009 (ip), vehicle: saline 104 % of control | endpoint: mean survival time, dose: 0.31 mg/kg/injection, schedule: Q04DX003 (ip), vehicle: saline 100 % of control | endpoint: mean survival time, dose: 0.39 mg/kg/injection, schedule: Q01DX009 (ip), vehicle: saline 104 % of control | endpoint: mean survival time, dose: 0.62 mg/kg/injection, schedule: Q04DX003 (ip), vehicle: saline 98 % of control | endpoint: mean survival time, dose: 0.78 mg/kg/injection, schedule: Q01DX009 (ip), vehicle: saline 98 % of control

S=C1NCCO1
inactive: [4] 100 % of control and 95 % of control | [9] 95 % of control | [10] 91 % of control and 97 % of control | [11] 93 % of control | [12] 112 % of control | [13] 104 % of control

Cc1cc(C)c(C)cc1C
inactive: [4] 92 % of control | [9] 96 % of control | [10] 96 % of control | [11] 100 % of control | [12] 88 % of control | [13] 94 % of control

CCN(CC)Cc1cc(Nc2ncnc3[nH]c(C)c(C)c23)ccc1O
inactive: [3] 89 % of control | endpoint: mean survival time, dose: 100.0 mg/kg/injection, schedule: Q01DX001 (ip), vehicle: saline with Tween-80 97 % of control | endpoint: mean survival time, dose: 200.0 mg/kg/injection, schedule: Q01DX001 (ip), vehicle: saline with Tween-80 100 % of control | [14] 92 % of control

Cc1ccc2c(c1)-c1[nH]c3ccccc3c1CS2
inactive: endpoint: mean survival time, dose: 50.0 mg/kg/injection, schedule: Q01DX009 (ip), vehicle: Klucel (hydroxypropylcellulose) (HPC) 109 % of control | endpoint: mean survival time, dose: 100.0 mg/kg/injection, schedule: Q01DX009 (ip), vehicle: Klucel (hydroxypropylcellulose) (HPC) 107 % of control | endpoint: mean survival time, dose: 200.0 mg/kg/injection, schedule: Q01DX009 (ip), vehicle: Klucel (hydroxypropylcellulose) (HPC) 107 % of control

O=C(O)C1(C(=O)O)CC2(CCC2)C1
inactive: [15] 100 % of control | [16] 100 % of control | [17] 100 % of control

CCOC(=O)c1ccc(OC(=O)Nc2cc(OC)ccc2OC)cc1
inactive: [4] 93 % of control | [10] 92 % of control

c1ccc2c(c1)OB(C1CCCC1)O2
inactive: endpoint: mean survival time, dose: 100.0 mg/kg/injection, schedule: Q01DX009 (ip), vehicle: other 93 % of control | endpoint: mean survival time, dose: 200.0 mg/kg/injection, schedule: Q01DX009 (ip), vehicle: other 105 % of control | endpoint: mean survival time, dose: 400.0 mg/kg/injection, schedule: Q01DX009 (ip), vehicle: other 109 % of control

COc1cc(OC)c2c(c1Cl)OCC2=O
inactive: [4] 91 % of control | [9] 103 % of control | [10] 91 % of control | [11] 94 % of control | [13] 97 % of control

O=C1c2ccccc2C(C2c3ccccc3C(=O)c3ccccc32)c2ccccc21
inactive: [9] 110 % of control | [11] 96 % of control | [13] 100 % of control

O=C1OCc2ccccc21
inactive: [5] 96 % of control | [14] 100 % of control | endpoint: mean survival time, dose: 400.0 mg/kg/injection, schedule: Q04DX002 (ip), vehicle: saline with Tween-80 100 % of control

COc1cc(CO)ccc1Oc1ccc(C)cc1
inactive: [15] 104 % of control | [6] 100 % of control | [16] 107 % of control | [7] 100 % of control | [17] 100 % of control | [8] 101 % of control

CCCCn1c2ccccc2c2ccccc21
inactive: [9] 94 % of control | [13] 94 % of control

CC1(C)N=C(N)N=C(N)N1c1ccc(OCCCCNC(=O)c2cccc(S(=O)(=O)F)c2)c(Cl)c1
inactive: endpoint: mean survival time, dose: 5.0 mg/kg/injection, schedule: Q01DX001 (ip), vehicle: saline with Tween-80 105 % of control | endpoint: mean survival time, dose: 5.0 mg/kg/injection, schedule: Q01DX009 (ip), vehicle: saline 102 % of control | endpoint: mean survival time, dose: 10.0 mg/kg/injection, schedule: Q01DX001 (ip), vehicle: saline with Tween-80 95 % of control | endpoint: mean survival time, dose: 10.0 mg/kg/injection, schedule: Q01DX009 (ip), vehicle: saline 98 % of control | endpoint: mean survival time, dose: 20.0 mg/kg/injection, schedule: Q01DX001 (ip), vehicle: saline with Tween-80 94 % of control | endpoint: mean survival time, dose: 20.0 mg/kg/injection, schedule: Q01DX009 (ip), vehicle: saline 98 % of control

CCOC(=O)C(CCCl)C(=O)OCC
inactive: [15] 104 % of control | [16] 104 % of control | [17] 101 % of control

CC(=O)Nc1nc(C)cs1
inactive: endpoint: mean survival time, dose: 75.0 mg/kg/injection, schedule: Q01DX001 (ip), vehicle: saline 98 % of control | endpoint: mean survival time, dose: 150.0 mg/kg/injection, schedule: Q01DX001 (ip), vehicle: saline 97 % of control | endpoint: mean survival time, dose: 300.0 mg/kg/injection, schedule: Q01DX001 (ip), vehicle: saline 98 % of control

CCCCCCCCCC(=O)N1CC[N+](C)(C)CC1
inactive: endpoint: mean survival time, dose: 5.0 mg/kg/injection, schedule: Q01DX001 (ip), vehicle: saline 102 % of control | endpoint: mean survival time, dose: 10.0 mg/kg/injection, schedule: Q01DX001 (ip), vehicle: saline 105 % of control | endpoint: mean survival time, dose: 20.0 mg/kg/injection, schedule: Q01DX001 (ip), vehicle: saline 104 % of control

COC12CC(COC(=O)c3cncc(Br)c3)CN(C)C1Cc1cn(C)c3cccc2c13 (stereo not drawn)
inactive: endpoint: mean survival time, dose: 100.0 mg/kg/injection, schedule: Q04DX003 (ip), vehicle: alcohol 105 % of control | endpoint: mean survival time, dose: 200.0 mg/kg/injection, schedule: Q04DX003 (ip), vehicle: alcohol 102 % of control | endpoint: mean survival time, dose: 400.0 mg/kg/injection, schedule: Q04DX003 (ip), vehicle: alcohol 111 % of control

Cl/C=C(\Cl)CCl
inactive: [1] 91 % of control | [2] 96 % of control | [4] 94 % of control

Clc1ccc(C(=Cc2ccccc2)c2ccc(Cl)cc2)cc1
inactive: [4] 102 % of control | [9] 90 % of control | [10] 93 % of control | [11] 93 % of control | [12] 96 % of control | [13] 97 % of control
